From publication PMC6277767, “Broad and Region-Specific Impacts of the Synthetic Cannabinoid CP 55,940 in Adolescent and Adult Female Mouse Brains” (Frontiers in Molecular Neuroscience, 2018)

System: CD1 female mouse brain lipidome
Test: Brain-region lipid levels (HPLC/MS/MS lipidomics) 2 h after single i.p. 3 mg/kg CP 55,940 vs vehicle
Format: in vivo
Design: N-arachidonoyl phenylalanine level, Mean / N-stearoyl tryptophan level, Mean / N-stearoyl proline level, Mean / N-stearoyl leucine level, Mean / N-stearoyl phenylalanine level, Mean / N-stearoyl serine level, Mean / N-stearoyl methionine level, Mean: unit: moles per gram
Procedure: The Bloomington Institutional Animal Care and Use Committee of Indiana University reviewed and approved the animal procedures. Female mice from the CD1 strain were utilized to match our study examining THC’s effects on the brain lipidome ([Leishman et al., 2018]). Mice were given a single i.p. injection of either 3 mg/kg CP or 1:1:18 cremophor:ethanol:saline vehicle (please refer to the section “3 mg/kg CP Is Relevant for Synthetic Cannabinoid Abuse and Has Stronger Effects on the Female Mouse Brain Lipidome During Adolescence” for a justification of dose and use of female mice). Three different age groups were given injections: PND 35 and PND 50 adolescents, and adult mice (PND 113). At least eight mice in each age group received CP and at least eight received vehicle. Matching the THC study time course ([Leishman et al., 2018]), mice were sacrificed via rapid decapitation 2 h after injection. Brains were immediately removed and flash-frozen in liquid nitrogen, and then stored at -80°C until dissections were performed. Brains were dissected on an ice-cold dissection plate into the following regions: STR, HIPP, CER, THAL, CTX, HYP, MID, and STEM. These abbreviations for these brain areas will be used exclusively when discussing the results generated by these specific dissections. Each dissected area was immediately placed in liquid nitrogen and then stored at -80°C until used for lipid extraction.
Tissue extracts were performed as previously described ([Bradshaw et al., 2006]; [Stuart et al., 2013]; [Raboune et al., 2014]; [Leishman et al., 2016a],[b], [2017], [2018]). First, samples were shock frozen in liquid nitrogen, weighed, and transferred to a centrifuge tube. The mass of the largest sample was multiplied by 50 to determine how many milliliters of HPLC-grade methanol (Fisher, Fair Lawn, NJ, United States) to add. Then, samples were spiked with 500 pmol deuterium-labeled NAGly (d8NAGly; Cayman Chemical, Ann Arbor, MI, United States). Samples were placed on ice in darkness for 2 h then individually homogenized and centrifuged at 19,000 × g for 20 min at 20°C. Supernatants were diluted with HPLC water (purified in house) to make a solution of 75% water, 25% supernatant. Lipids were partially purified on C18 solid phase extraction columns (Agilent, Palo Alto, CA, United States). A series of four elutions with 1.5 mL of 60%, 75%, 85%, and 100% methanol were collected ([Stuart et al., 2013]; [Leishman et al., 2016a],[b], [2018]).
As previously described ([Bradshaw et al., 2006]; [Tan et al., 2006]; [Smoum et al., 2010]; [Stuart et al., 2013]; [Tortoriello et al., 2013]; [Raboune et al., 2014]; [Leishman et al., 2016a],[b], [2017], [2018]), samples were analyzed using an Applied Biosystems API 3000 triple quadrupole mass spectrometer with electrospray ionization (Foster City, CA, United States). Using an Agilent XDB-C18 reversed phase analytical column and optimized mobile phase gradients, 20 μL from each elution were chromatographed. Two Shimadzu 10ADvp pumps (Columbia, MD, United States) provided the pressure for gradient elution. Mobile phase A: 20% methanol, 80% water (v/v) and 1 mM ammonium acetate (Sigma, St. Louis, MO, United States). Mobile phase B: 100% methanol, 1 mM ammonium acetate. Every method run began with 0% mobile phase B, reached 100% mobile phase B flowing at 0.2 mL/min, and gradually returned to 0% mobile phase B.
This screening library will be referred to as the lipidome when discussing data from this study. HPLC/MS/MS data were analyzed using Analyst software (Applied Biosystems) ([Bradshaw et al., 2006]; [Tan et al., 2006]; [Stuart et al., 2013]; [Tortoriello et al., 2013]; [Raboune et al., 2014]; [Leishman et al., 2016a],[b], [2017], [2018]). Chromatograms (Supplementary Figure 3) were generated by determining the retention time of analytes from the analytical column with a [M-1] or [M+1] parent peak and a fragmentation peak corresponding to the programmed values. […]

[1] = midbrain, PND 35 WT adolescent female mice, 3 mg/kg
[2] = striatum, PND 50, 3mg/kg CP 55,940 vs Veh
[3] = striatum, PND 50 female mice, 3mg/kg CP 55,940, mean

For CCCCCCC(C)(C)c1ccc([C@@H]2C[C@H](O)CC[C@H]2CCCO)c(O)c1 [CP 55,940], the “N-stearoyl GABA level, Mean” value [1] was 7.82E-12, the “N-stearoyl alanine level, Mean” value [1] was 9.99E-12 and the “N-stearoyl ethanolamine level, Mean” value [1] was 1.75E-11. The “N-stearoyl glycine level, Mean” value [1] was 2.16E-11, the “N-stearoyl leucine level, Mean” value [1] was 1.07E-12 and the “N-stearoyl methionine level, Mean” value [1] was 2.71E-12. For the same molecule, the “N-stearoyl phenylalanine level, Mean” value [1] was 2.34E-12, the “N-stearoyl proline level, Mean” value [1] was 3.86E-13 and the “N-stearoyl serine level, Mean” value [1] was 3.54E-11. The “N-stearoyl tryptophan level, Mean” value [1] was 7E-13, the “N-stearoyl tyrosine level, Mean” value [1] was 2.3E-13 and the “Oleic acid level, Mean” value [1] was 1.55E-09. For the same molecule, the “PGE2 level, Mean” value [1] was 5.98E-10, the “PhosphoLEA level, Mean” value [1] was 1.57E-11 and the “2-arachidonoyl glycerol, Direction (relative to Veh)” value [2] was “↓”. The “2-arachidonoyl glycerol, Magnitude (x Veh level)” value [2] was 0.86 x Veh level, the “2-linoleoyl glycerol Direction (relative to Veh)” value [2] was “↓” and the “2-linoleoyl glycerol Magnitude (x Veh level)” value [2] was 0.77 x Veh level. For the same molecule, the “Arachidonic acid, Direction (relative to Veh)” value [2] was “↓”, the “Arachidonic acid, Magnitude (x Veh level)” value [2] was 0.81 x Veh level and the “Linoleic acid, Direction (relative to Veh)” value [2] was “↓”. The “Linoleic acid, Magnitude (x Veh level)” value [2] was 0.78 x Veh level, the “N-arachidonoyl GABA Direction (relative to Veh)” value [2] was “↓” and the “N-arachidonoyl GABA Magnitude (x Veh level)” value [2] was 0.71 x Veh level. The “N-arachidonoyl glycine Direction (relative to Veh)” value [2] was “↓”, the “N-arachidonoyl glycine Magnitude (x Veh level)” value [2] was 0.65 x Veh level and the “N-arachidonoyl phenylalanine, Direction (relative to Veh)” value [2] was “↓”. For the same molecule, the “N-arachidonoyl phenylalanine, Magnitude (x Veh level)” value [2] was 0.78 x Veh level, the “N-arachidonoyl taurine Direction (relative to Veh)” value [2] was “↓” and the “N-arachidonoyl taurine Magnitude (x Veh level)” value [2] was 0.91 x Veh level. For the same molecule, the “N-docosahexaenoyl GABA Direction (relative to Veh)” value [2] was “↓”, the “N-docosahexaenoyl GABA Magnitude (x Veh level)” value [2] was 0.81 x Veh level and the “N-docosahexaenoyl glycine Direction (relative to Veh)” value [2] was “↓”. The “N-docosahexaenoyl glycine Magnitude (x Veh level)” value [2] was 0.51 x Veh level, the “N-palmitoyl leucine, Direction (relative to Veh)” value [2] was “↑” and the “N-palmitoyl leucine, Magnitude (x Veh level)” value [2] was 1.33 x Veh level. The “N-palmitoyl tyrosine Magnitude (x Veh level)” value [2] was 1.35 x Veh level, the “N-palmitoyl tyrosine, Direction (relative to Veh)” value [2] was “↑” and the “N-palmitoyl valine Direction (relative to Veh)” value [2] was “↑”. For the same molecule, the “N-palmitoyl valine Magnitude (x Veh level)” value [2] was 1.72 x Veh level, the “Oleic acid, Direction (relative to Veh)” value [2] was “↓” and the “Oleic acid, Magnitude (x Veh level)” value [2] was 0.79 x Veh level. For the same molecule, the “PGF2α Direction (relative to Veh)” value [2] was “↑”, the “PGF2α Magnitude (x Veh level)” value [2] was 1.16 x Veh level and the 2-arachidonoyl-sn-glycerol level [3] was 1.35E-10. It also gave a 2-linoleoyl-sn-glycerol level [3] of 8.22E-11, a 2-oleoyl-sn-glycerol level [3] of 9.26E-10 and a 2-palmitoyl-sn-glycerol level [3] of 1.09E-09. The 11-OH-THC level [3] was “BDL”, the 11-nor-9-carboxyTHC level [3] was “BDL” and the Arachidonic acid level [3] was 2.35E-10. For the same molecule, the Cannabidiol level [3] was “BDL”, the Linoleic acid level [3] was 1.59E-10 and the “N-arachidonoyl GABA level” value [3] was 4.29E-12. The N-arachidonoyl dopamine level [3] was “BDL”, the N-arachidonoyl ethanolamine level [3] was 2.93E-11 and the N-arachidonoyl glycine level [3] was 5.51E-13. For the same molecule, the N-arachidonoyl phenylalanine level [3] was 3.83E-13, the N-arachidonoyl proline level [3] was “BDL” and the N-arachidonoyl taurine level [3] was 2.53E-11. The N-arachidonoyl tryptophan level [3] was “BDL”, the “N-docosahexaenoyl GABA level” value [3] was 4.96E-13 and the N-docosahexaenoyl ethanolamine level [3] was 3.09E-11. The N-docosahexaenoyl glycine level [3] was 1.15E-13, the N-docosahexaenoyl leucine level [3] was 1.19E-13 and the N-docosahexaenoyl methionine level [3] was “BDL”. The N-docosahexaenoyl phenylalanine level [3] was 4.38E-13, the N-docosahexaenoyl proline level [3] was “BDL” and the N-docosahexaenoyl tryptophan level [3] was “BDL”. The N-docosahexaenoyl valine level [3] was “BDL”, the N-linoleoyl alanine level [3] was 1.36E-13 and the N-linoleoyl ethanolamine level [3] was 5.34E-11. The N-linoleoyl glycine level [3] was 6.89E-14, the N-linoleoyl leucine level [3] was 4.43E-14 and the N-linoleoyl proline level [3] was “BDL”. The N-linoleoyl serine level [3] was 1.09E-10, the N-linoleoyl tryptophan level [3] was “BDL” and the N-linoleoyl tyrosine level [3] was “BDL”. For the same molecule, the N-nervonoyl valine level [3] was “BDL”, the “N-oleoyl GABA level” value [3] was 1.25E-12 and the N-oleoyl alanine level [3] was 1.2E-12. The N-oleoyl dopamine level [3] was “BDL”, the N-oleoyl ethanolamine level [3] was 6.94E-11 and the N-oleoyl glycine level [3] was 1.27E-12. For the same molecule, the N-oleoyl leucine level [3] was 4.16E-13, the N-oleoyl methionine level [3] was 3.74E-13 and the N-oleoyl phenylalanine level [3] was 5.89E-13. For the same molecule, the N-oleoyl proline level [3] was “BDL”, the N-oleoyl serine level [3] was 2.17E-10 and the N-oleoyl tryptophan level [3] was “BDL”. For the same molecule, the N-oleoyl tyrosine level [3] was 1.31E-13, the “N-palmitoyl GABA level” value [3] was 3.11E-12 and the N-palmitoyl alanine level [3] was 4.63E-12. It also gave a N-palmitoyl ethanolamine level [3] of 6.26E-11, a N-palmitoyl glycine level [3] of 5.26E-12 and a N-palmitoyl leucine level [3] of 1.06E-12. For the same molecule, the N-palmitoyl methionine level [3] was 1.12E-12, the N-palmitoyl phenylalanine level [3] was 9.78E-13 and the N-palmitoyl proline level [3] was “BDL”. For the same molecule, the N-palmitoyl serine level [3] was 2.18E-11, the N-palmitoyl tryptophan level [3] was “BDL” and the N-palmitoyl tyrosine level [3] was 4.79E-13.
